Series [1] can be described thus: Physical stability of peptide analogues (Thioflavin T fibrillation). It is filed as physicochemical. Conditions: maximum ThT signal normalized between hAMY maximum and buffer background; 40° C., shaking, four days; pH 7 per table title. The essentials:
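Peptides in 50 mM sodium acetate pH 4 or 50 mM sodium phosphate pH 7 were preincubated 1 h, mixed with 4 μM ThT, held at 40° C with 700 rpm shaking before each read. Fluorescence (ex 450/em 480 nm) every 10 min for four days; LOESS-smoothed maximum signal normalized in percent between hAMY and buffer.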

A further series has as its target hAM1 receptor (Homo sapiens, UniProt O60895+Q16602). As to the kind of experiment: cAMP assay for in vitro receptor activation, hAM1-R. It is filed as cell-based. Conditions: cAMP assay, hAM1 receptor; read-out: hAM1R EC50. The essentials: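 Stable hAM1 cells (monoclonal) plated 8000/well; buffer DPBS, 0.05% casein, 0.5 mM IBMX; cAMP read-out.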

SMILES strings stand for the structures. pEC50: −log10 of the molar value. Bridge positions count the residues as written; N and C are the ends. Square brackets hold non-standard residues; d marks the D form. Peptide text beside a SMILES is read from it. Hyp = O=C(O)[C@@H]1C[C@@H](O)CN1; Cit = NC(=O)NCCC[C@H](N)C(=O)O

Chain of hAM1 receptor (Q16602 23-461): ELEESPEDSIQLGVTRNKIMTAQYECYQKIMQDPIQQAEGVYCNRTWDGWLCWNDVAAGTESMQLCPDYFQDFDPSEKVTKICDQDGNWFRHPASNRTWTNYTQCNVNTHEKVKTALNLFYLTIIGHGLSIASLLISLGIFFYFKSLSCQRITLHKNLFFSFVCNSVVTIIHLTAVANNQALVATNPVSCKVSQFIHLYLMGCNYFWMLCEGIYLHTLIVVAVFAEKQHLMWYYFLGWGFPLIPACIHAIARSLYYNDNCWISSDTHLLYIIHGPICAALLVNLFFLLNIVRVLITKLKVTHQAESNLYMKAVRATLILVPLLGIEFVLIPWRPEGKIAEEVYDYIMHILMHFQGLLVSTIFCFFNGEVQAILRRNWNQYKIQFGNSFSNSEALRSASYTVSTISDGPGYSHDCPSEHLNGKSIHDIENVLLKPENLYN
Chain of hAM1 receptor (O60895 43-175 partner): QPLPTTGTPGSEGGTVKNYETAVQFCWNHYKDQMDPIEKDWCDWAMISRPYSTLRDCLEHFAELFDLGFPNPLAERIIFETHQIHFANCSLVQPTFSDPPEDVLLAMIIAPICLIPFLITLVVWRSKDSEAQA

In the case of `CC[C@H](C)[C@@H]1NC(=O)[C@H](CCCNC(=N)N)NC(=O)[C@@H](NC(=O)CN)CSSC[C@@H](C(=O)N[C@H](C(=O)N[C@H](C(=O)N[C@@H](CCC(N)=O)C(=O)N[C@@H](Cc2c[nH]c3ccccc23)C(=O)N[C@@H](CC(C)C)C(=O)N[C@@H](C)C(=O)N[C@@H](Cc2c[nH]cn2)C(=O)N[C@@H](CCC(N)=O)C(=O)N[C@H](C(=O)N[C@@H](Cc2ccc(O)cc2)C(=O)N[C@@H](CCC(N)=O)C(=O)N[C@@H](Cc2ccccc2)C(=O)N[C@H](C(=O)N[C@@H](CC(=O)O)C(=O)N[C@@H](CCCCN)C(=O)N[C@@H](Cc2ccccc2)C(=O)N[C@@H](CCCCN)C(=O)N[C@@H](CC(=O)O)C(=O)N[C@@H](CC(N)=O)C(=O)N[C@H](C(=O)N[C@@H](C)C(=O)N2CCC[C@H]2C(=O)N[C@@H](CCCNC(=N)N)C(=O)N[C@@H](CO)C(=O)N[C@@H](CCCCN)C(=O)N[C@H](C(=O)N[C@@H](CO)C(=O)N2CCC[C@H]2C(=O)N[C@@H](CCC(N)=O)C(=O)N[C@H](C(=O)N2C[C@H](O)C[C@H]2C(N)=O)[C@@H](C)O)[C@@H](C)CC)C(C)C)[C@@H](C)O)[C@@H](C)CC)C(C)C)[C@@H](C)O)NC(=O)[C@H]([C@@H](C)O)NC(=O)CNC1=O` [compound 351] (H-GCRIGTCTVQWLAHQIYQFTDKFKDNVAPRSKISPQT[Hyp]-NH2; disulfide 2-7; N-terminus assumed), the “Max ThT signal (%)” value in series [1] came to 7.200%. The pEC50 on hAM1 receptor is under 5.30.

On to `CC[C@H](C)[C@H](NC(=O)[C@H](CCC(N)=O)NC(=O)[C@H](Cc1c[nH]cn1)NC(=O)[C@H](C)NC(=O)[C@H](CC(C)C)NC(=O)[C@H](CCCNC(N)=O)NC(=O)[C@H](CCC(N)=O)NC(=O)[C@@H](NC(=O)[C@@H](NC(=O)[C@@H]1CSSC[C@H](NC(=O)CN)C(=O)N[C@@H](CCCNC(=N)N)C(=O)N[C@@H]([C@@H](C)O)C(=O)NCC(=O)N[C@@H]([C@@H](C)O)C(=O)N1)[C@@H](C)O)C(C)C)C(=O)N[C@@H](Cc1ccc(O)cc1)C(=O)N[C@@H](CCC(N)=O)C(=O)N[C@@H](Cc1ccccc1)C(=O)N[C@H](C(=O)N[C@@H](CC(=O)O)C(=O)N[C@@H](CCCCN)C(=O)N[C@@H](CC(=O)O)C(=O)N[C@@H](CCCCN)C(=O)N[C@@H](CC(=O)O)C(=O)N[C@@H](CC(N)=O)C(=O)N[C@H](C(=O)N[C@@H](C)C(=O)N1CCC[C@H]1C(=O)N[C@@H](CCCNC(=N)N)C(=O)N[C@H](C(=O)N[C@@H](CCCCN)C(=O)N[C@H](C(=O)NCC(=O)N1CCC[C@H]1C(=O)N[C@@H](CCC(N)=O)C(=O)NCC(=O)N[C@@H](Cc1ccc(O)cc1)C(N)=O)C(C)C)[C@@H](C)O)C(C)C)[C@@H](C)O` [compound 298] (H-GCRTGTCTVQ[Cit]LAHQIYQFTDKDKDNVAPRTKVGPQGY-NH2; disulfide 2-7; N-terminus assumed), for which, in series [1], the “Max ThT signal (%)” value came out at 31.250%. In addition, the pEC50 at hAM1 receptor was under 5.30.

With `CC[C@H](C)[C@H](NC(=O)[C@H](CCCCN)NC(=O)[C@@H](NC(=O)[C@H](CCCNC(=N)N)NC(=O)[C@@H]1CCCN1C(=O)[C@H](C)NC(=O)[C@@H](NC(=O)[C@H](CC(N)=O)NC(=O)[C@H](CC(=O)O)NC(=O)[C@H](CCCCN)NC(=O)[C@H](CC(=O)O)NC(=O)[C@H](CCCCN)NC(=O)[C@H](CC(=O)O)NC(=O)[C@@H](NC(=O)[C@H](Cc1ccccc1)NC(=O)[C@H](CCC(N)=O)NC(=O)[C@H](Cc1ccc(O)cc1)NC(=O)[C@@H](NC(=O)[C@H](CCC(N)=O)NC(=O)[C@H](Cc1c[nH]cn1)NC(=O)[C@H](C)NC(=O)[C@H](CC(C)C)NC(=O)[C@H](Cc1c[nH]c2ccccc12)NC(=O)[C@H](CCC(N)=O)NC(=O)[C@@H](NC(=O)[C@@H](NC(=O)[C@@H]1CSSC[C@H](NC(=O)CN)C(=O)N[C@@H](CCCNC(=N)N)C(=O)N[C@@H]([C@@H](C)O)C(=O)NCC(=O)N[C@@H]([C@@H](C)O)C(=O)N1)[C@@H](C)O)C(C)C)[C@@H](C)CC)[C@@H](C)O)C(C)C)[C@@H](C)O)C(=O)NCC(=O)N1CCC[C@H]1C(=O)N[C@@H](CCC(N)=O)C(=O)NCC(=O)N1C[C@H](O)C[C@H]1C(N)=O` [compound 357] (H-GCRTGTCTVQWLAHQIYQFTDKDKDNVAPRTKIGPQG[Hyp]-NH2; disulfide 2-7; N-terminus assumed), the “Max ThT signal (%)” value in series [1] is on record as 19.750%. Also, the pEC50 at hAM1 receptor is under 5.30.

Consider `CC[C@H](C)[C@H](NC(=O)[C@H](CC(N)=O)NC(=O)[C@H](CO)NC(=O)[C@H](CCCNC(=N)N)NC(=O)[C@@H]1CCCN1C(=O)[C@H](C)NC(=O)[C@@H](NC(=O)[C@H](CC(N)=O)NC(=O)[C@H](CC(=O)O)NC(=O)[C@H](CCCCN)NC(=O)[C@H](CC(=O)O)NC(=O)[C@H](CCCCN)NC(=O)[C@H](CC(=O)O)NC(=O)[C@@H](NC(=O)[C@H](Cc1ccccc1)NC(=O)[C@H](CCC(N)=O)NC(=O)[C@H](Cc1ccc(O)cc1)NC(=O)[C@@H](NC(=O)[C@H](CCC(N)=O)NC(=O)[C@H](Cc1c[nH]cn1)NC(=O)[C@H](C)NC(=O)[C@H](CC(C)C)NC(=O)[C@H](CCCNC(N)=O)NC(=O)[C@H](CCC(N)=O)NC(=O)[C@@H](NC(=O)[C@@H](NC(=O)[C@@H]1CSSC[C@H](NC(=O)CN)C(=O)N[C@@H](CCCNC(=N)N)C(=O)N[C@@H]([C@@H](C)O)C(=O)NCC(=O)N[C@@H]([C@@H](C)O)C(=O)N1)[C@@H](C)O)C(C)C)[C@@H](C)CC)[C@@H](C)O)C(C)C)C(=O)NCC(=O)N1CCC[C@H]1C(=O)N[C@@H](CCC(N)=O)C(=O)NCC(=O)N1C[C@H](O)C[C@H]1C(N)=O` [compound 303] (H-GCRTGTCTVQ[Cit]LAHQIYQFTDKDKDNVAPRSNIGPQG[Hyp]-NH2; disulfide 2-7), for which the “Max ThT signal (%)” value in series [1] is 18.150%. Moreover, on hAM1 receptor, the pEC50 is under 5.30.

Consider `CC[C@H](C)[C@H](NC(=O)[C@H](CC(N)=O)NC(=O)[C@H](CO)NC(=O)[C@H](CCCNC(=N)N)NC(=O)[C@@H]1CCCN1C(=O)[C@H](C)NC(=O)[C@@H](NC(=O)[C@H](CC(N)=O)NC(=O)[C@H](CC(=O)O)NC(=O)[C@H](CCCCN)NC(=O)[C@H](CC(=O)O)NC(=O)[C@H](CCCCN)NC(=O)[C@H](CC(=O)O)NC(=O)[C@@H](NC(=O)[C@H](Cc1ccccc1)NC(=O)[C@H](CCC(N)=O)NC(=O)[C@H](Cc1ccc(O)cc1)NC(=O)[C@@H](NC(=O)[C@H](CCC(N)=O)NC(=O)[C@H](Cc1c[nH]cn1)NC(=O)[C@H](C)NC(=O)[C@H](CC(C)C)NC(=O)[C@H](Cc1c[nH]c2ccccc12)NC(=O)[C@H](CCC(N)=O)NC(=O)[C@@H](NC(=O)[C@@H](NC(=O)[C@@H]1CSSC[C@H](NC(=O)CN)C(=O)N[C@@H](CCCNC(=N)N)C(=O)N[C@@H]([C@@H](C)O)C(=O)NCC(=O)N[C@@H]([C@@H](C)O)C(=O)N1)[C@@H](C)O)C(C)C)[C@@H](C)CC)[C@@H](C)O)C(C)C)C(=O)NCC(=O)N1CCC[C@H]1C(=O)N[C@@H](CCC(N)=O)C(=O)NCC(=O)N1C[C@H](O)C[C@H]1C(N)=O` [compound 359] (H-GCRTGTCTVQWLAHQIYQFTDKDKDNVAPRSNIGPQG[Hyp]-NH2; disulfide 2-7; N-terminus assumed), for which, in series [1], the “Max ThT signal (%)” value is reported as 20.350%. Further, the negative-log EC50 (pEC50) at hAM1 receptor was under 5.30.

Turning to `CC[C@H](C)[C@H](NC(=O)[C@H](CCCCN)NC(=O)[C@H](CO)NC(=O)[C@H](CCCNC(=N)N)NC(=O)[C@@H]1CCCN1C(=O)[C@H](C)NC(=O)[C@@H](NC(=O)[C@H](CC(N)=O)NC(=O)[C@H](CC(=O)O)NC(=O)[C@H](CCCCN)NC(=O)[C@H](CC(=O)O)NC(=O)[C@H](CCCCN)NC(=O)[C@H](CC(=O)O)NC(=O)[C@@H](NC(=O)[C@H](Cc1ccccc1)NC(=O)[C@H](CCC(N)=O)NC(=O)[C@H](Cc1ccc(O)cc1)NC(=O)[C@H](CC(C)C)NC(=O)[C@H](CCC(N)=O)NC(=O)[C@H](Cc1c[nH]cn1)NC(=O)[C@H](C)NC(=O)[C@H](CC(C)C)NC(=O)[C@H](CCCNC(=N)N)NC(=O)[C@H](CCC(N)=O)NC(=O)[C@@H](NC(=O)[C@@H](NC(=O)[C@@H]1CSSC[C@H](NC(=O)CN)C(=O)N[C@@H](CCCNC(=N)N)C(=O)N[C@@H](Cc2ccccc2)C(=O)NCC(=O)N[C@@H]([C@@H](C)O)C(=O)N1)[C@@H](C)O)C(C)C)[C@@H](C)O)C(C)C)C(=O)N[C@@H](CO)C(=O)N1CCC[C@H]1C(=O)N[C@@H](CCC(N)=O)C(=O)N[C@H](C(=O)N1C[C@H](O)C[C@H]1C(N)=O)[C@@H](C)O` [compound 217] (H-GCRFGTCTVQRLAHQLYQFTDKDKDNVAPRSKISPQT[Hyp]-NH2; disulfide 2-7; N-terminus assumed), the “Max ThT signal (%)” value in series [1] was determined as 13.800%. For the same compound, the pEC50 on hAM1 receptor is under 5.30.

On to `CC[C@H](C)[C@H](NC(=O)[C@H](CCC(N)=O)NC(=O)[C@H](Cc1c[nH]cn1)NC(=O)[C@H](C)NC(=O)[C@H](CC(C)C)NC(=O)[C@H](Cc1c[nH]c2ccccc12)NC(=O)[C@H](CCC(N)=O)NC(=O)[C@@H](NC(=O)[C@@H](NC(=O)[C@@H]1CSSC[C@H](NC(=O)CN)C(=O)N[C@@H](CCCNC(=N)N)C(=O)N[C@@H]([C@@H](C)O)C(=O)NCC(=O)N[C@@H]([C@@H](C)O)C(=O)N1)[C@@H](C)O)C(C)C)C(=O)N[C@@H](Cc1ccc(O)cc1)C(=O)N[C@@H](CCC(N)=O)C(=O)N[C@@H](Cc1ccccc1)C(=O)N[C@H](C(=O)N[C@@H](CC(=O)O)C(=O)N[C@@H](CCCCN)C(=O)N[C@@H](CC(=O)O)C(=O)N[C@@H](CCCCN)C(=O)N[C@@H](CC(=O)O)C(=O)N[C@@H](CC(N)=O)C(=O)N[C@H](C(=O)N[C@@H](C)C(=O)N1CCC[C@H]1C(=O)N[C@@H](CCCNC(=N)N)C(=O)N[C@H](C(=O)N[C@@H](CCCCN)C(=O)N[C@H](C(=O)NCC(=O)N1CCC[C@H]1C(=O)N[C@@H](CCC(N)=O)C(=O)NCC(=O)N1C[C@H](O)C[C@H]1C(N)=O)C(C)C)[C@@H](C)O)C(C)C)[C@@H](C)O` [compound 349] (H-GCRTGTCTVQWLAHQIYQFTDKDKDNVAPRTKVGPQG[Hyp]-NH2; disulfide 2-7; N-terminus assumed), for which the “Max ThT signal (%)” value in series [1] came out at 15.250%. The pEC50 on hAM1 receptor was under 5.30.

Source of the values: patent US12139520B2 (priority 2020, dated 2024).
